These results are taken from patent US20250011300A1, “PIPERAZINYLSULFONYLARYL COMPOUNDS FOR TREATMENT OF BACTERIAL INFECTIONS” (Hoffmann-La Roche Inc., priority 2021, published 2025).

The target in assay [1] is Escherichia coli LpxH (UDP-2,3-diacylglucosamine hydrolase) (Escherichia coli (strain K12), UniProt P43341). The assay is described as follows: 50% Inhibitory Concentration (IC50) to LpxH, UMP/CMP-Glo Glycosyltransferase Assay kit. The format is biochemical. How it is done:
Example 121: 50% Inhibitory Concentration (IC50) to UDP-2,3-diacylglucosamine hydrolase (LpxH)
The inhibitory potency of molecules to UDP-2,3-diacylglucosamine hydrolase (LpxH) was determined using the UMP/CMP-Glo™ Glycosyltransferase Assay kit. LpxH hydrolyzes the pyrophosphate bond of UDP-2,3-diacylglucosamine (UDP-DAG) to yield 2,3-diacylglucosamine 1-phosphate (lipid X) and UMP. The assay kit could quantify the UMP production by convert the UMP to ATP and generate light in a luciferase reaction. The compound's effect on the LpxH activity is detected by measuring the light using a luminometer (Envision).

The test system of assay [2] is E. coli (ATCC 25922). The experiment in a line: Minimal Inhibitory Concentration (MIC) assay, E. coli. It counts as cell-based. Particulars: Escherichia coli, ATCC25922; E. coli ATCC 25922, CAMHB, 20 hours at 35° C.; read-out: MIC E. coli ATCC 25922. How it is done: (§1) Example 122: Minimal Inhibitory Concentration Protocol (MIC) Assay
(§2) The in vitro potency of compounds to inhibit E. coli (ATCC 25922) and K. pneumonia (ATCC 43816) growth was assessed by MIC (Minimal Inhibitory Concentration) assay. Samples were prepared from 10 mM DMSO stock solutions. After serial 2-fold dilution in DMSO in a master plate (Greiner, Cat No: 651201), 180 μL sterile distilled water was added to 20 μL each aliquot of the samples. Then 10 μL diluted compounds were transferred into a new assay plate (Costar, 3599).
(§3) The growth medium Cation-Adjusted Mueller Hinton Broth (CAMHB) was prepared by adding the 20 mg per liter CaCl2) and 20 mg per liter MgCl2 into the MHB medium (Jianglai Company, sterilized).
(§4) Vials of each of the test microorganisms were maintained frozen in the vapor phase of a liquid nitrogen freezer. The bacteria E. coli ATCC 25922 (KWIKSTIK, 0335K) and K. pneumonia ATCC 43816 were taken out from liquid nitrogen freezer, then thawed in room temperature, and diluted in the CAMHB medium to achieve a final inoculum of 5×10^5 CFU/mL. 90 μL CAMHB with bacteria was dispensed to the assay plate and pipetted 5 times.
(§5) Then the assay plates were incubated for 20 hours at 35° C. in ambient air. Following incubation, the MIC (μg/mL), the lowest concentration of drug that inhibits visible growth of the microorganism was read and recorded throw the microscope.

Assay [3] concerns K. pneumonia (ATCC 43816). The assay is described as follows: Minimal Inhibitory Concentration (MIC) assay, K. pneumonia. The format is cell-based. As to conditions: Klebsiella pneumoniae; K. pneumoniae ATCC43816, CAMHB, 20 hours at 35° C.; read-out: MIC K. pneumoniae ATCC43816. How it is done: as §1, §2, §3, §4, §5

Converted amounts (≈) assume the structure as drawn.

Escherichia coli LpxH (UDP-2,3-diacylglucosamine hydrolase), sequence (P43341 whole entry): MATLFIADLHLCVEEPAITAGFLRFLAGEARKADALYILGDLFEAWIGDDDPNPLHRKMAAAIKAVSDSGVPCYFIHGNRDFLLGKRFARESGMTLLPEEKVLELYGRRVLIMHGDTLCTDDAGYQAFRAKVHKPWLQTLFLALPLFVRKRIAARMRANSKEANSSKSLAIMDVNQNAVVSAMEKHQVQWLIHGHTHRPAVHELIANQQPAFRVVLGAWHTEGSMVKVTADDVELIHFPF

`O=C1CC(CN2CCNCC2)CN1c1ccc(S(=O)(=O)N2CCN(c3cc(C(F)(F)F)cc(Cl)n3)CC2)cc1` (stereo not drawn) [Example 41, 1-[4-[4-[6-Chloro-4-(trifluoromethyl)-2-pyridyl]piperazin-1-yl]sulfonylphenyl]-4-(piperazin-1-ylmethyl)pyrrolidin-2-one]: 10.2 nM corresponded to half-maximal inhibition in assay [1] (IC50). Further, the results for the MIC in assay [2] and in assay [3] were 1.27 µg/mL (≈ 2.16 µM) and 2.55 µg/mL (≈ 4.34 µM), respectively.

For the compound `O=C1OC(CN2C[C@@H](O)[C@@H](O)C2)CN1c1ccc(S(=O)(=O)N2CCN(c3cc(C(F)(F)F)cc(Cl)n3)CC2)cc1` (stereo partly drawn) [Example 30, 3-[4-[4-[6-Chloro-4-(trifluoromethyl)-2-pyridyl]piperazin-1-yl]sulfonylphenyl]-5-[[cis-3,4-dihydroxypyrrolidin-1-yl]methyl]oxazolidin-2-one], the IC50 in assay [1] is 14.9 nM. The MIC was determined as 2.01 µg/mL (≈ 3.32 µM) in assay [2] and 4.02 µg/mL (≈ 6.63 µM) in assay [3].

Regarding `NCC1CN(c2ccc(S(=O)(=O)N3CCN(c4cc(C(F)(F)F)cc(Cl)n4)CC3)cc2)C(=O)O1` (stereo not drawn) [Example 3, 5-(Aminomethyl)-3-[4-[4-[6-chloro-4-(trifluoromethyl)-2-pyridyl]piperazin-1-yl]sulfonylphenyl]oxazolidin-2-one], the IC50 in assay [1] is 460 nM. The MIC in assay [2] was determined as 3.96 µg/mL (≈ 7.62 µM); in assay [3], 1.98 µg/mL (≈ 3.81 µM).

For `NC1CC(=O)N(c2ccc(S(=O)(=O)N3CCN(c4cc(Oc5ccccc5)cc(Cl)n4)CC3)cc2)C1` (stereo not drawn) [Example 72, 4-Amino-1-[4-[4-(6-chloro-4-phenoxy-2-pyridyl)piperazin-1-yl]sulfonylphenyl]pyrrolidin-2-one], in assay [1], the IC50 is 407 nM. Moreover, the MIC in assay [2] and in assay [3] was 7.06 µg/mL (≈ 13.4 µM) throughout.

For the compound `N[C@@H]1CC(=O)N(c2ccc(S(=O)(=O)N3CCN(c4cc(C(F)(F)C5=CCNCC5)cc(Cl)n4)CC3)cc2)C1` [Example 106], the IC50 in assay [1] was 199 nM. Also, the MIC in assay [2] and in assay [3] was 1.77 µg/mL (≈ 3.12 µM) throughout.

In assay [1], `O=C1CC(N2C[C@@H]3C[C@H]2CN3)CN1c1ccc(S(=O)(=O)N2CCN(c3cc(C(F)(F)F)cc(Cl)n3)CC2)cc1` (stereo partly drawn) [Example 55, 1-[4-[4-[6-Chloro-4-(trifluoromethyl)-2-pyridyl]piperazin-1-yl]sulfonylphenyl]-4-[(1S,4S)-2,5-diazabicyclo[2.2.1]heptan-2-yl]pyrrolidin-2-one] had a concentration for half-maximal inhibition (IC50) of 51.3 nM. Also, the MIC in assay [2] was determined as 3.88 µg/mL (≈ 6.63 µM); in assay [3], 7.77 µg/mL (≈ 13.3 µM).

Regarding `N[C@@H]1CC(=O)N(c2ccc(S(=O)(=O)N3CCN(c4cc(C(F)(F)[C@@H]5CNCCO5)cc(Cl)n4)CC3)cc2)C1` [Example 104], the IC50 in assay [1] was 8.76 nM. The MIC in assay [2] amounted to 1.01 µg/mL (≈ 1.77 µM); in assay [3], 2.01 µg/mL (≈ 3.52 µM).

`O=C1CC(N2CCN[C@@H](CO)C2)CN1c1ccc(S(=O)(=O)N2CCN(c3cc(C(F)(F)F)cc(Cl)n3)CC2)cc1` (stereo partly drawn) [Example 54, 1-[4-[4-[6-Chloro-4-(trifluoromethyl)-2-pyridyl]piperazin-1-yl]sulfonylphenyl]-4-[(3R)-3-(hydroxymethyl)piperazin-1-yl]pyrrolidin-2-one] showed an IC50 in assay [1] of 19.9 nM. The values for the MIC in assay [2] and in assay [3] were 2 µg/mL (≈ 3.32 µM) and 4 µg/mL (≈ 6.63 µM), respectively.

In assay [1], `NCCN1CCC2(CC1)CN(c1ccc(S(=O)(=O)N3CCN(c4cc(C(F)(F)F)cc(Cl)n4)CC3)cc1)C(=O)O2` [Example 24, 8-(2-Aminoethyl)-3-[4-[4-[6-chloro-4-(trifluoromethyl)-2-pyridyl]piperazin-1-yl]sulfonylphenyl]-1-oxa-3,8-diazaspiro[4.5]decan-2-one] had an IC50 of 14.9 nM. The MIC in assay [2] and in assay [3] was 2.24 µg/mL (≈ 3.71 µM) throughout.

In the case of `C=Cc1nc(N2CCN(S(=O)(=O)c3ccc(N4CC(N)CC4=O)cc3)CC2)cc(C(F)(F)c2ccccc2)n1` (stereo not drawn) [Example 84, 4-Amino-1-[4-[4-[6-[difluoro(phenyl)methyl]-2-vinyl-pyrimidin-4-yl]piperazin-1-yl]sulfonylphenyl]pyrrolidin-2-one], 14.4 nM corresponded to half-maximal inhibition in assay [1] (IC50). Also, the minimal inhibitory concentration (MIC) in assay [2] came out at 4.18 µg/mL (≈ 7.54 µM); in assay [3] it was 16.7 µg/mL (≈ 30.1 µM).
